Assay type in all cases: cell-based
In assay [1] the test system is human hepatic stellate cells LX-2. As to the kind of experiment: Anti-fibrosis activity test: inhibition of proliferation of human hepatic stellate cells LX-2 (CCK-8). The settings on record: Homo sapiens, LX-2, 48 h, LX-2 cells, 48 h, CCK-8. Put shortly: (§1)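 48 h compound treatment of fibroblast-type cells seeded at 2×10^4 cells/mL, 37° C, 5% CO2; viability by CCK-8 (2 h, A450). Inhibition rate calculated against blank control, IC50 by curve fitting; pirfenidone served as reference.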

The subject of the next assay is BHK-21 cells. The assay is described as follows: Anti-fibrosis activity test: inhibition of BHK-21 cell proliferation (CCK-8). The settings on record: Mesocricetus auratus, BHK-21, 48 h, 48 h, CCK-8. Put shortly: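 BHK-21 cells seeded at 2×10^4 cells/mL, allowed to adhere 24 h at 37° C, 5% CO2, then exposed to compounds at graded concentrations in triplicate for 48 h. CCK-8 added for 2 h and absorbance read at 450 nm; inhibition rate taken as (1−Ai/Ao)×100% and IC50 fitted.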

Assay [2] relates to human fibrosarcoma cells HT-1080. As to the kind of experiment: Anti-fibrosis activity test: inhibition of proliferation of human fibrosarcoma cells HT-1080 (CCK-8). The settings on record: Homo sapiens, HT-1080, 48 h, HT-1080 cells, 48 h, CCK-8. Put shortly: as §1
Assay [3] has as its system human dermal fibroblasts CCC-ESF-1. The assay is described as follows: Anti-fibrosis activity test: inhibition of proliferation of human dermal fibroblasts CCC-ESF-1 (CCK-8). Particulars: Homo sapiens, Fibroblast; CCC-ESF-1 cells, 48 h, CCK-8. The method, boiled down: as §1
Assay [4] relates to human embryonic lung fibroblast IMR-90. The assay is described as follows: Anti-fibrosis activity test: inhibition of proliferation of human embryonic lung fibroblast IMR-90 (CCK-8). The settings on record: Homo sapiens; IMR-90 cells, 48 h, CCK-8. The method, boiled down:
as §1

The subject of assay [5] is cardiac fibroblast RAT-iCell-C002. As to the kind of experiment: Anti-fibrosis activity test: inhibition of proliferation of cardiac fibroblast RAT-iCell-C002 (CCK-8). Particulars: Cardiac fibroblast, 48 h, RAT-iCell-C002 cells, CCK-8. The method, boiled down: as §1
The subject of assay [6] is human lung fibroblasts HFL1. As to the kind of experiment: Anti-fibrosis activity test: inhibition of proliferation of human lung fibroblasts HFL1 (CCK-8). The settings on record: Homo sapiens, HFL1, 48 h, HFL1 cells, 48 h, CCK-8. The method, boiled down:
as §1

Assay [7] has as its system mouse macrophages (RAW264.7). As to the kind of experiment: Lipopolysaccharide-induced NO secretion in macrophages (Griess). Particulars: Mus musculus, RAW264.7, 24 h, RAW264.7, LPS 1 μg/ml, a/b isomers given as first/second symbol, read-out: IC50 (μM), inhibition of lipopolysaccharide-induced NO secretion in macrophages. The method, boiled down:
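RAW264.7 macrophages in DMEM with 10% FBS received test samples at several concentrations and were stimulated with 1 μg/ml LPS for 24 h. NO in the supernatant was measured with the Griess reagent at 548 nm, […].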
(In general: The Griess reaction detects nitrite, a stable product of nitric oxide.)

As usually defined, the IC50 is the concentration needed to halve the response being measured.

Regarding `O=C1c2c(c(=O)c3ccccc3n2CCN2CCCCC2)-c2cccn21` [Compound 784a, 6-(2-(Piperidin-1-yl)ethyl)-5H-pyrrolizino[2,1-b]quinoline-5,11(6H)-dione], the IC50 in assay [1] was 0.05 to 5 mM; with BHK-21 cells it was below 0.05 mM; in assay [2], 0.05 to 5 mM; in assay [3], 0.05 to 5 mM; in assay [4] it was 0.05 to 5 mM; in assay [5], 0.05 to 5 mM. For the same molecule, the 50% inhibitory concentration (IC50) in assay [6] was in the range of 0.05 to 5 mM; in assay [7], 10 to 50 µM.
`O=C1c2nc3ccccc3c(OCCN3CCCCC3)c2-c2cccn21` [Compound 784b, 11-(2-(piperidin-1-yl)ethoxy)-5H-pyrrolizino[2,1-b]quinolin-5-one]: the IC50 (in assay [1]; in the assay with BHK-21 cells; in assay [2]; in assay [3]; in assay [4]; in assay [5]) was 0.05 to 5 mM in each case. For the same molecule, the IC50 in assay [6] fell in the range of 0.05 to 5 mM; in assay [7], 1 to 10 µM.
As to `O=C1c2c(c(=O)c3ccccc3n2CCN2CCOCC2)-c2cccn21` [Compound 785a, 6-(2-Morpholinoethyl)-5H-pyrrolizino[2,1-b]quinoline-5,11(6H)-dione], the IC50 in assay [1] is 0.05 to 5 mM; in the assay with BHK-21 cells, 0.05 to 5 mM; in assay [2], below 0.05 mM; in assay [3], 0.05 to 5 mM; in assay [4], 0.05 to 5 mM; in assay [5] it was 0.05 to 5 mM. For the same molecule, the IC50 in assay [6] lay in the range of 0.05 to 5 mM; in assay [7], 1 to 10 µM.
On to `O=C1c2nc3ccccc3c(OCCN3CCOCC3)c2-c2cccn21` [Compound 785b, 11-(2-morpholinoethoxy)-5H-pyrrolizino[2,1-b]quinolin-5-one], for which the half-inhibitory concentration (IC50) (in assay [1]; with BHK-21 cells; in assay [2]; in assay [3]; in assay [4]; in assay [5]) was 0.05 to 5 mM each time. For the same molecule, the IC50 in assay [6] was in the range of 0.05 to 5 mM; in assay [7], 1 to 10 µM.
Turning to `O=C1c2c(c(=O)c3ccccc3n2CCCN2CCCCC2)-c2cccn21` [Compound 786a, 6-(3-(Piperidin-1-yl)propyl)-5H-pyrrolizino[2,1-b]quinoline-5,11(6H)-dione], the IC50 (in assay [1]; with BHK-21 cells; in assay [2]; in assay [3]; in assay [4]; in assay [5]) was 0.05 to 5 mM throughout. Besides, the IC50 in assay [6] lay in the range of 0.05 to 5 mM; in assay [7] it was 1 to 10 µM.
Take `O=C1c2nc3ccccc3c(OCCCN3CCCCC3)c2-c2cccn21` [Compound 786b, 11-(3-(piperidin-1-yl)propoxy)-5H-pyrrolizino[2,1-b]quinolin-5-one]: the IC50 (in assay [1]; in the assay with BHK-21 cells; in assay [2]; in assay [3]; in assay [4]; in assay [5]) was 0.05 to 5 mM in each case. For the same molecule, the results for the IC50 in assay [6] and in assay [7] were 0.05 to 5 mM and 1 to 10 µM, respectively.
On to `O=C1c2c(c(=O)c3ccccc3n2CCCCN2CCCCC2)-c2cccn21` [Compound 788a, 6-(4-(Piperidin-1-yl)butyl)-5H-pyrrolizino[2,1-b]quinoline-5,11(6H)-dione], for which the IC50 (in assay [1]; in the assay on BHK-21 cells; in assay [2]; in assay [3]; in assay [4]; in assay [5]) was 0.05 to 5 mM in each case. For the same molecule, the results for the IC50 in assay [6] and in assay [7] were 0.05 to 5 mM and 1 to 10 µM, respectively.
`O=C1c2nc3ccccc3c(OCCCCN3CCCCC3)c2-c2cccn21` [Compound 788b, 11-(4-(piperidin-1-yl)butoxy)-5H-pyrrolizino[2,1-b]quinolin-5-one]: the IC50 (in assay [1]; with BHK-21 cells; in assay [2]; in assay [3]; in assay [4]; in assay [5]) was 0.05 to 5 mM throughout. The IC50 was in the range of 0.05 to 5 mM in assay [6] and 1 to 10 µM in assay [7].
On to `O=C1c2c(c(=O)c3ccccc3n2CCCCN2CCOCC2)-c2cccn21` [Compound 789a, 6-(4-Morpholinobutyl)-5H-pyrrolizino[2,1-b]quinoline-5,11(6H)-dione], for which the concentration for half-maximal inhibition (IC50) (in assay [1]; with BHK-21 cells; in assay [2]; in assay [3]; in assay [4]; in assay [5]) was 0.05 to 5 mM in each case. The values for the IC50 in assay [6] and in assay [7] were 0.05 to 5 mM and 1 to 10 µM, respectively.
For `O=C1c2nc3ccccc3c(OCCCCN3CCOCC3)c2-c2cccn21` [Compound 789b, 11-(4-morpholinobutoxy)-5H-pyrrolizino[2,1-b]quinolin-5-one], the IC50 (in assay [1]; with BHK-21 cells; in assay [2]; in assay [3]; in assay [4]; in assay [5]) was 0.05 to 5 mM throughout. Moreover, the IC50 in assay [6] lay in the range of 0.05 to 5 mM; in assay [7] it was 1 to 10 µM.
In the case of `CCCOCCn1c2c(c(=O)c3ccccc31)-c1cccn1C2=O` [Compound 790a, 6-(2-Propoxyethyl)-5H-pyrrolizino[2,1-b]quinoline-5,11(6H)-dione], the IC50 (in assay [1]; in the assay with BHK-21 cells; in assay [2]; in assay [3]; in assay [4]; in assay [5]) was 0.05 to 5 mM in each case. In addition, the IC50 in assay [6] was 0.05 to 5 mM; in assay [7], 1 to 10 µM.
As for `CCCOCCOc1c2c(nc3ccccc13)C(=O)n1cccc1-2` [Compound 790b, 11-(2-propoxyethoxy)-5H-pyrrolizino[2,1-b]quinolin-5-one], the concentration for half-maximal inhibition (IC50) (in assay [1]; with BHK-21 cells; in assay [2]; in assay [3]; in assay [4]; in assay [5]) was 0.05 to 5 mM in each case. Also, the IC50 lay within 0.05 to 5 mM in assay [6] and 1 to 10 µM in assay [7].
In the case of `CCOCCCn1c2c(c(=O)c3ccccc31)-c1cccn1C2=O` [Compound 791a, 6-(3-Ethoxypropyl)-5H-pyrrolizino[2,1-b]quinoline-5,11(6H)-dione], the IC50 in assay [1] is 0.05 to 5 mM; in the assay on BHK-21 cells, below 0.05 mM; in assay [2] it was 0.05 to 5 mM; in assay [3] it was 0.05 to 5 mM; in assay [4], 0.05 to 5 mM; in assay [5], 0.05 to 5 mM. Further, the IC50 was in the range of 0.05 to 5 mM in assay [6] and 1 to 10 µM in assay [7].
As to `CCOCCCOc1c2c(nc3ccccc13)C(=O)n1cccc1-2` [Compound 791b, 11-(3-ethoxypropoxy)-5H-pyrrolizino[2,1-b]quinolin-5-one], the IC50 (in assay [1]; in the assay on BHK-21 cells; in assay [2]; in assay [3]; in assay [4]; in assay [5]) was 0.05 to 5 mM each time. Besides, the IC50 lay in the range of 0.05 to 5 mM in assay [6] and 1 to 10 µM in assay [7].
For the molecule `O=C1c2c(c(=O)c3ccccc3n2CCN2CCNCC2)-c2cccn21` [Compound 792a, 6-(2-(Piperazin-1-yl)ethyl)-5H-pyrrolizino[2,1-b]quinoline-5,11(6H)-dione], the IC50 in assay [1] is 0.05 to 5 mM; in the assay on BHK-21 cells, 0.05 to 5 mM; in assay [2], 0.05 to 5 mM; in assay [3], below 0.05 mM; in assay [4], 0.05 to 5 mM; in assay [5], 0.05 to 5 mM. Moreover, the figures for the IC50 in assay [6] and in assay [7] were 0.05 to 5 mM and 0.1 to 1 µM, respectively.
`O=C1c2nc3ccccc3c(OCCN3CCNCC3)c2-c2cccn21` [Compound 792b, 11-(2-(piperazin-1-yl)ethoxy)-5H-pyrrolizino[2,1-b]quinolin-5-one]: the half-inhibitory concentration (IC50) was 0.05 to 5 mM in assay [1]; 0.05 to 5 mM in the assay with BHK-21 cells; 0.05 to 5 mM in assay [2]; below 0.05 mM in assay [3]; 0.05 to 5 mM in assay [4]; 0.05 to 5 mM in assay [5]. The 50% inhibitory concentration (IC50) lay within 0.05 to 5 mM in assay [6] and 0.1 to 1 µM in assay [7].
As to `O=C1c2c(c(=O)c3ccccc3n2CCCN2CCNCC2)-c2cccn21` [Compound 793a, 6-(3-(Piperazin-1-yl)propyl)-5H-pyrrolizino[2,1-b]quinoline-5,11(6H)-dione], the IC50 (in assay [1]; in the assay with BHK-21 cells; in assay [2]; in assay [3]; in assay [4]; in assay [5]) was 0.05 to 5 mM in each case. Further, the concentration for half-maximal inhibition (IC50) in assay [6] was in the range of 0.05 to 5 mM; in assay [7], 0.1 to 1 µM.

These data come from US11040028B2, “Penicinotam derivative, preparation method and use thereof” (OCEAN UNIVERSITY OF CHINA, priority 2017, dated 2021).
